In assay [1] the target is T1, B1R receptor of the rat (bradykinin 1 receptor) (Rattus norvegicus, UniProt P97583).
T1 construct: host or cells: CHO K1 cells (rB1R cells)
T1 sequence (P97583 1-337): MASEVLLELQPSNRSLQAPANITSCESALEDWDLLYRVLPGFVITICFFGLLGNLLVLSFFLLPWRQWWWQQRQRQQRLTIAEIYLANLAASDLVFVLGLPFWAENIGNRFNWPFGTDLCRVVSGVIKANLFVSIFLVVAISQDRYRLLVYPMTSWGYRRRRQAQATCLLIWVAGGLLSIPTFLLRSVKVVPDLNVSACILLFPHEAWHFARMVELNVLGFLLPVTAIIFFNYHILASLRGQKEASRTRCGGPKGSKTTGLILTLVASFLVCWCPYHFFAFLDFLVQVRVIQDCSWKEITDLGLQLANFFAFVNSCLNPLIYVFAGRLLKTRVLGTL
Put plainly: FLIPR Ca2+ assay (Fluo-4) on CHO K1 cells stably transfected with the B1R gene of the rat; % activation and % inhibition at 10 μM. The note with it: CHO K1 rB1R cells, Ca2+ inflow after 100 nM Des-Arg9-bradykinin; for inhibition at 10 µM: CHO-K1, test substance 10 μM, read-out: B1R antagonism, rat [10 μM] % inhibition; for B1R antagonism, rat [10 μM] % inhibition: test substance 10 μM. The assay is classed as cell-based. The essentials:
(§1)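 Fluo-4 Ca2+ flux on FLIPR in stable hB1R or rB1R CHO K1 lines, two additions. Agonism: 10 µM compound versus 0.5 nM Lys-Des-Arg9-BK (human) or 100 nM Des-Arg9-BK (rat); antagonism: same agonists applied 10 min later, suppression expressed against maximum achievable inhibition.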

Assay [2] addresses T2, human B1R receptor (bradykinin 1 receptor) (Homo sapiens, UniProt P46663).
T2 construct: host or cells: CHO K1 cells (hB1R cells)
T2 sequence (P46663 1-353): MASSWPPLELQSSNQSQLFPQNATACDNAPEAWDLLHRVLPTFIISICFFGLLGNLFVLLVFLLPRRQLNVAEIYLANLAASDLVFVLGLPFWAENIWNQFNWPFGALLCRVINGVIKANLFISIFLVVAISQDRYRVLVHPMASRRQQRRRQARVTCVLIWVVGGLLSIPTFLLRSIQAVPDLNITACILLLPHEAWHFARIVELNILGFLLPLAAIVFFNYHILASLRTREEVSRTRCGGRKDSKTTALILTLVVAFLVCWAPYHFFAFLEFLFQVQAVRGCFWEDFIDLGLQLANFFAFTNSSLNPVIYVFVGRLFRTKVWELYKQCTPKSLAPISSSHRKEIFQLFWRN
Put plainly: FLIPR Ca2+ assay (Fluo-4) on CHO K1 cells stably transfected with the human B1R gene; % activation and % inhibition at 10 μM. The assay is classed as cell-based. Particulars: CHO K1 hB1R cells, Ca2+ inflow after 0.5 nM Lys-Des-Arg9-bradykinin; for inhibition at 10 µM: CHO-K1, test substance 10 μM, read-out: B1R antagonism, human [10 μM] % inhibition; for B1R antagonism, human [10 μM] % inhibition: test substance 10 μM. A digest of the protocol:
as §1

The inhibition is the change of the read-out against control, counted positive when it falls.

Consider `O=C(COCC1CCCN1S(=O)(=O)c1c(Cl)cc(C(F)(F)F)cc1Cl)N1CCC(O)(c2ccc(Cl)cc2)CC1` (stereo not drawn) [Example 166, 1-(4-(4-chlorophenyl)-4-hydroxypiperidin-1-yl)-2-((1-(2,6-dichloro-4-(trifluoromethyl)phenylsulfonyl)pyrrolidin-2-yl)methoxy)ethanone], for which the inhibition at 10 µM was found to be 104% in assay [1] and 58.5% in assay [2].
For `O=C(COC1CCN(S(=O)(=O)c2ccccc2)C1)N1CCC(O)(c2ccccn2)CC1` (stereo not drawn) [Example 34, 2-(1-phenylsulfonyl-pyrrolidin-3-yloxy)-1-(4′-hydroxy-3′,4′,5′,6′-tetrahydro-2′H-[2,4′]bipyridinyl-1′-yl)-ethanone], in that order: 40.3% and 5.93%.
For `COc1cc(C)c(S(=O)(=O)N2CCCCC2COCC(=O)N2CCC(O)(c3ccncc3)CC2)c(C)c1` (stereo not drawn) [Example 144, 1-(4-hydroxy-4-(pyridin-4-yl)piperidin-1-yl)-2-((1-(4-methoxy-2,6-dimethylphenylsulfonyl)piperidin-2-yl)methoxy)ethanone], in that order: 101% and 104%.
`Cc1ccc(S(=O)(=O)N2CCCCC2COCC(=O)N2CCC(O)(c3cccnc3)CC2)cc1Cl` (stereo not drawn) [Example 161, 2-((1-(3-chloro-4-methylphenylsulfonyl)piperidin-2-yl)methoxy)-1-(4-hydroxy-4-(pyridin-3-yl)piperidin-1-yl)ethanone]: the inhibition at 10 µM was 80.8% in assay [1] and 78.5% in assay [2].
The matching figures for `O=C(COC1CCN(S(=O)(=O)c2cccc(C(F)(F)F)c2)C1)N1CCC(O)(c2ccccn2)CC1` (stereo not drawn) [Example 59, 1-(4′-hydroxy-3′,4′,5′,6′-tetrahydro-2′H-[2,4′]bipyridinyl-1′-yl)-2-[1-(3-trifluoromethyl-phenylsulfonyl)-pyrrolidin-3-yloxy]-ethanone]: 16.6% and -24%.
For `COc1cc(C)c(S(=O)(=O)N(C)CCOCCC(=O)N2CCC(O)(c3cccnc3)CC2)c(C)c1` [Example 133, N-(2-(3-(4-hydroxy-4-(pyridin-3-yl)piperidin-1-yl)-3-oxopropoxy)ethyl)-4-methoxy-N,2,6-trimethylphenylsulfonamide], the results for the inhibition at 10 µM in assay [1] and in assay [2] were 96.1% and 84.1%, respectively.
For `COc1cc(C)c(S(=O)(=O)N2CCC(COCC(=O)N3CCC(O)(c4cccnc4)CC3)C2)c(C)c1` (stereo not drawn) [Example 194, 1-(4-hydroxy-4-(pyridin-3-yl)piperidin-1-yl)-2-((1-(4-methoxy-2,6-dimethylphenylsulfonyl)pyrrolidin-3-yl)methoxy)ethanone], in that order: 82.8% and 104%.
The matching figures for `O=C(COCC1CCCN1S(=O)(=O)c1c(Cl)cccc1Cl)N1CCC(O)(c2ccccc2)CC1` (stereo not drawn) [Example 220, 2-((1-(2,6-dichlorophenylsulfonyl)pyrrolidin-2-yl)methoxy)-1-(4-hydroxy-4-phenylpiperidin-1-yl)ethanone]: 102% and 99%.
With `COc1cc(C)c(S(=O)(=O)N(CCOCC(=O)N2CCC(O)(c3cccnc3)CC2)CC2CC2)c(C)c1C` [Example 240, N-(cyclopropylmethyl)-N-(2-(2-(4-hydroxy-4-(pyridin-3-yl)piperidin-1-yl)-2-oxoethoxy)ethyl)-4-methoxy-2,3,6-trimethylphenylsulfonamide], the results for the inhibition at 10 µM in assay [1] and in assay [2] were 99.4% and 103%, respectively.
The matching figures for `COc1ccc(S(=O)(=O)N2CCCC2COCC(=O)N2CCC(O)(c3ccncc3)CC2)cc1` (stereo not drawn) [Example 26, 1-(4-hydroxy-3,4,5,6-tetrahydro-2H-[4,4′]bipyridinyl-1-yl)-2-[1-(4-methoxy-phenylsulfonyl)-pyrrolidin-2-ylmethoxy]-ethanone]: 5.09% and 9.64%.
For `CN(CCOCC(=O)N1CCC(O)(c2ccccn2)CC1)S(=O)(=O)c1ccc(OC(F)(F)F)cc1` [Example 20, N-{2-[2-(4′-hydroxy-3′,4′,5′,6′-tetrahydro-2′H-[2,4′]bipyridinyl-1′-yl)-2-oxo-ethoxy]-ethyl}-N-methyl-4-trifluoromethoxy-phenylsulfonamide], in that order: 17.1% and 22.2%.
The matching figures for `Cc1ccc2ccccc2c1S(=O)(=O)N(C)CCOCC(=O)N1CCC(O)(c2cccnc2)CC1` [Example 148, N-(2-(2-(4-hydroxy-4-(pyridin-3-yl)piperidin-1-yl)-2-oxoethoxy)ethyl)-N,2-dimethylnaphthalene-1-sulfonamide]: 99% and 100%.
For the compound `O=C(COCC1Cc2ccccc2CN1S(=O)(=O)c1ccc(Cl)cc1Cl)N1CCC(O)(c2cccnc2)CC1` (stereo not drawn) [Example 92, 2-[2-(2,4-dichloro-phenylsulfonyl)-1,2,3,4-tetrahydro-isoquinolin-3-ylmethoxy]-1-(4′-hydroxy-3′,4′,5′,6′-tetrahydro-2′H-[3,4′]bipyridinyl-1′-yl)-ethanone], in assay [1], the “B1R antagonism, rat [10 μM] % inhibition” value was found to be 97.98%. Besides, the “B1R antagonism, human [10 μM] % inhibition” value in assay [2] was found to be 101.02%.
For `COc1cc(C)c(S(=O)(=O)N(C)CCOCCC(=O)N2CCC(O)(c3ccc(Cl)c(C(F)(F)F)c3)CC2)c(C)c1` [Example 278, N-(2-(3-(4-(4-chloro-3-(trifluoromethyl)phenyl)-4-hydroxypiperidin-1-yl)-3-oxopropoxy)ethyl)-4-methoxy-N,2,6-trimethylphenylsulfonamide], the inhibition at 10 µM in assay [1] was 99.9%; in assay [2], 96.4%.
The matching figures for `Cc1cc(C)c(S(=O)(=O)N2CCCCC2COCC(=O)N2CCC(O)(c3ccccn3)CC2)c(C)c1` (stereo not drawn) [Example 94, 1-(4′-hydroxy-3′,4′,5′,6′-tetrahydro-2′H-[2,4′]bipyridinyl-1′-yl)-2-[1-(2,4,6-trimethyl-phenylsulfonyl)-piperidin-2-ylmethoxy]-ethanone]: 103% and 104%.
For the compound `O=C(COCC1CCCN1S(=O)(=O)c1cc(Cl)sc1Cl)N1CCC(O)(c2cccc(C(F)(F)F)c2)CC1` (stereo not drawn) [Example 227, 2-((1-(2,5-dichlorothiophen-3-ylsulfonyl)pyrrolidin-2-yl)methoxy)-1-(4-hydroxy-4-(3-(trifluoromethyl)phenyl)piperidin-1-yl)ethanone], the inhibition at 10 µM in assay [1] was found to be 80.9%; in assay [2], 7.61%.
For the compound `CN(CCOCC(=O)N1CCC(O)(c2cccnc2)CC1)S(=O)(=O)c1ccc(Cl)s1` [Example 102, 5-chloro-thiophene-2-sulfonic acid {2-[2-(4′-hydroxy-3′,4′,5′,6′-tetrahydro-2′H-[3,4′]bipyridinyl-1′-yl)-2-oxo-ethoxy]-ethyl}-methyl-amide], the inhibition at 10 µM in assay [1] is 16.1%; in assay [2], 14.2%.
The matching figures for `COc1ccc(S(=O)(=O)N2CCC(OCC(=O)N3CCC(O)(c4ccccn4)CC3)(c3ccccc3)CC2)cc1` [Example 74, 1-(4′-hydroxy-3′,4′,5′,6′-tetrahydro-2′H-[2,4′]bipyridinyl-1′-yl)-2-[1-(4-methoxy-phenylsulfonyl)-4-phenyl-piperidin-4-yloxy]-ethanone]: -3.17% and -7.3%.
The matching figures for `COc1ccc(S(=O)(=O)N2Cc3ccccc3C[C@H]2COCC(=O)N2CCC(O)(c3cccnc3)CC2)cc1` [Example 134, (S)-1-(4-hydroxy-4-(pyridin-3-yl)piperidin-1-yl)-2-((2-(4-methoxyphenylsulfonyl)-1,2,3,4-tetrahydroisoquinolin-3-yl)methoxy)ethanone]: 29.1% and 66%.
With `O=C(COCCN1CCN(S(=O)(=O)c2ccccc2)CC1)N1CCC(O)(c2ccncc2)CC1` [Example 49, 2-[2-(4-phenylsulfonyl-piperazin-1-yl)-ethoxy]-1-(4-hydroxy-3,4,5,6-tetrahydro-2H-[4,4′]bipyridinyl-1-yl)-ethanone], the inhibition at 10 µM in assay [1] is 7.14%; in assay [2], -5.73%.
As to `COc1cc(C)c(S(=O)(=O)N(C)CCOCC(=O)N2CCC(O)(c3ccccn3)CC2)c(C)c1` [Example 4, N-{2-[2-(4′-hydroxy-3′,4′,5′,6-tetrahydro-2′H-[2,4′]bipyridinyl-1′-yl)-2-oxo-ethoxy]-ethyl}-4-methoxy-2,6,N-trimethyl-phenylsulfonamide], in assay [1], the “B1R antagonism, rat [10 μM] % inhibition” value is on record as 105.56%. Besides, the “B1R antagonism, human [10 μM] % inhibition” value in assay [2] is given as 101.69%.

Values taken from patent US8580965B2, “Substituted sulfonamide compounds” (Gruenenthal GmbH, priority 2006, dated 2013).
